Experimental data taken from ChEMBL document CHEMBL5233272, “Nimbolide, a Neem Limonoid, Is a Promising Candidate for the Anticancer Drug Arsenal” (J Med Chem, 2021).

Columns and labels:
[1] = Acute toxicity in ip dosed Swiss albino mouse assessed as lethal dose; format: organism-based; conditions: in vivo
[2] = Acute toxicity in ip dosed Syrian golden hamster assessed as lethal dose; format: organism-based, Mesocricetus auratus; conditions: in vivo
[3] = Acute toxicity in iv dosed Swiss albino mouse assessed as lethal dose; format: organism-based; conditions: in vivo
[4] = Drug concentration in athymic Nu/Nu mouse plasma xenografted with human HCT-116 cells transfected with luciferase at 20 mg/kg, ip administered daily for 10 days by HPLC analysis; format: ADME, organism-based; conditions: time 10 day, read-out: Drug uptake
[5] = Drug concentration in athymic Nu/Nu mouse plasma xenografted with human HCT-116 cells transfected with luciferase at 5 mg/kg, ip administered daily for 10 days by HPLC analysis; format: ADME, organism-based; conditions: time 10 day, read-out: Drug uptake
[6] = Acute toxicity in ip dosed rat assessed as lethal dose; format: organism-based; conditions: in vivo
[7] = Oral bioavailability in Sprague-Dawley rat at 50 mg/kg measured upto 72 hrs; format: ADME, organism-based; conditions: in vivo
[8] = Drug concentration in athymic Nu/Nu mouse tumor xenografted with human HCT-116 cells transfected with luciferase at 5 mg/kg, ip administered daily for 10 days by HPLC analysis; format: ADME, organism-based, Neoplasm; conditions: time 10 day, read-out: Drug uptake
[9] = Drug concentration in athymic Nu/Nu mouse tumor xenografted with human HCT-116 cells transfected with luciferase at 20 mg/kg, ip administered daily for 10 days by HPLC analysis; format: ADME, organism-based, Neoplasm; conditions: time 10 day, read-out: Drug uptake
[10] = Oral bioavailability in Sprague-Dawley rat at 30 mg/kg measured upto 72 hrs; format: ADME, organism-based; conditions: in vivo
[11] = Cmax in mouse at 3 mg/kg, po measured after 2 hrs by LC-MS/MS analysis; format: ADME, organism-based; set-up: dose 3 mg/kg, time 2 hrs, route po; conditions: in vivo
[12] = Oral bioavailability in Sprague-Dawley rat at 10 mg/kg measured upto 72 hrs; format: ADME, organism-based; conditions: in vivo

COC(=O)C[C@H]1[C@]2(C)C3=C(C)[C@H](c4ccoc4)C[C@H]3O[C@@H]2[C@@H]2OC(=O)[C@]3(C)C=CC(=O)[C@@]1(C)[C@@H]23 [NIMBOLIDE]
LD50 [1]: 225 mg/kg | LD50 [2]: 500 mg/kg | LD50 [3]: 24 mg/kg | concentration at 240 h [4]: 409 ng/mL | concentration at 240 h [5]: 222 ng/mL | LD50 [6]: 600 mg/kg | bioavailability [7]: 3.06% | concentration at 240 h [8]: 345 ng/g | concentration at 240 h [9]: 868 ng/g | bioavailability [10]: 1.76% | Cmax [11]: 780 nM | bioavailability [12]: 2.72%
